Patent US9365604B2, “Oligomer-nucleoside phosphate conjugates” (NEKTAR THERAPEUTICS, priority 2007, dated 2016)
Like-named read-outs stand apart in the source and are kept apart here. One block for each compound: values may come before it.

Legend:
MCF7 = experiment: Sulforhodamine B (SRB) growth inhibition assay; assay type: cell-based, Human; settings: for ratio vs flox (GI50) MCF7: GI50 of conjugate vs floxuridine; for GI50: SRB assay
Description: (§1) In Vitro Screening of PEG-Gemcitabine Monophosphate in Selected Human Cancer Cell Lines
(§2) The aim was to determine the GI50 values for PEG-floxuridine conjugates against a panel of cell lines, and based on previous data from Xenograft studies. […] The test articles were solubilized in dimethylsulfoxide and were tested at four different molar (M) concentrations; 10^−4, 10^−5, 10^−6, M. GI50 (the concentration needed to reduce the growth of treated cells to half that of untreated control cells) was calculated for each condition ([(Ti−Tz)/(C-Tz)]×100=50, where Ti, Tz, and C refer to absorbance values obtained from each tested concentration, time zero, and control treatment, respectively).
as §2, with “The objective” for “The aim”, “the IC50” for “the GI50”, “for PEG-gemcitabine” for “for PEG-floxuridine”, “in dimethyl sulfoxide” for “in dimethylsulfoxide”, “10^−6, 10^−7” for “10^−6,”, “condition ([(Ti−Tz)/(C−Tz)]×100=50,” for “condition ([(Ti−Tz)/(C-Tz)]×100=50,”

HT29 = experiment: Sulforhodamine B (SRB) growth inhibition assay; assay type: cell-based, Human; settings: for ratio vs flox (GI50) HT29: GI50 of conjugate vs floxuridine; for GI50: cells exposed for 24 h, read-out: GI50 values (μM) HT29
Description: as §1, §2
as §2, with “The objective” for “The aim”, “the IC50” for “the GI50”, “for PEG-gemcitabine” for “for PEG-floxuridine”, “in dimethyl sulfoxide” for “in dimethylsulfoxide”, “10^−6, 10^−7” for “10^−6,”, “condition ([(Ti−Tz)/(C−Tz)]×100=50,” for “condition ([(Ti−Tz)/(C-Tz)]×100=50,”

A2780 = experiment: Sulforhodamine B (SRB) growth inhibition assay; assay type: cell-based, Human; settings: for ratio vs flox (GI50) A2780: GI50 of conjugate vs floxuridine; for GI50: SRB assay, cells exposed for 24 h, read-out: GI50 values (μM) A2780
Description: as §1, §2
as §2, with “The objective” for “The aim”, “the IC50” for “the GI50”, “for PEG-gemcitabine” for “for PEG-floxuridine”, “in dimethyl sulfoxide” for “in dimethylsulfoxide”, “10^−6, 10^−7” for “10^−6,”, “condition ([(Ti−Tz)/(C−Tz)]×100=50,” for “condition ([(Ti−Tz)/(C-Tz)]×100=50,”

Hop62 = experiment: Sulforhodamine B (SRB) growth inhibition assay; assay type: cell-based, Human; settings: for ratio vs flox (GI50) Hop62: GI50 of conjugate vs floxuridine; for GI50: cells exposed for 24 h, read-out: GI50 values (μM) Hop62
Description: as §1, §2
as §2, with “The objective” for “The aim”, “the IC50” for “the GI50”, “for PEG-gemcitabine” for “for PEG-floxuridine”, “in dimethyl sulfoxide” for “in dimethylsulfoxide”, “10^−6, 10^−7” for “10^−6,”, “condition ([(Ti−Tz)/(C−Tz)]×100=50,” for “condition ([(Ti−Tz)/(C-Tz)]×100=50,”

DU145 = experiment: Sulforhodamine B (SRB) growth inhibition assay; assay type: cell-based, Human; settings: for ratio vs flox (GI50) DU145: GI50 of conjugate vs floxuridine; for GI50: cells exposed for 24 h, read-out: GI50 values (μM) DU145
Description: as §2
as §2, with “The objective” for “The aim”, “the IC50” for “the GI50”, “for PEG-gemcitabine” for “for PEG-floxuridine”, “in dimethyl sulfoxide” for “in dimethylsulfoxide”, “10^−6, 10^−7” for “10^−6,”, “condition ([(Ti−Tz)/(C−Tz)]×100=50,” for “condition ([(Ti−Tz)/(C-Tz)]×100=50,”

MDCK cells [1] = test system: MDCK cells
Description: (§6) Bi-Directional Permeability of PEG-Floxuridine Conjugates in Caco-2 and MDCK Cells

[2] = Stability in cell culture medium (floxuridine release, HPLC); assay type: in vitro ADME
Description: The frozen samples were thawed and homogenized by vortex mixing. A 10 μl aliquot of the sample was transferred into a clean EPPENDORF tube. Samples were diluted with 190 μl methanol: water mixture (1:1, v/v). The tubes were vortex mixed and centrifuged for 10 min. The supernatant was transferred to HPLC vials and 10 μl volume of the sample was injected onto the HPLC system.

[3] = Bi-directional permeability in Caco-2 cells; settings: human
Description: as §6

Caco-2 cells [4] = test system: Caco-2 cells
Description: as §6

MIA PaCa-2 = experiment: In vitro cytotoxicity assay (CellTiter-Glo); assay type: cell-based; settings: for IC50: 72 h exposure, CellTiter-Glo
Description: (§3) The objective of these studies were to determine the IC50 values for PEG-floxuridine conjugates against floxuridine-resistant cell lines based on data from previous Xenograft studies. The cells were exposed for 72 h, and cell viability assessed by using the CellTiter-Glo assay.
(§4) The objective of these studies was to determine the IC50 values for PEG-gemcitabine conjugates against gemcitabine-resistant cell lines based on data from previous Xenograft studies. The cells were exposed for 72 h, and cell viability assessed by using the CellTiter-Glo assay.

HCT-116 = experiment: In vitro cytotoxicity assay (CellTiter-Glo); assay type: cell-based; settings: for IC50: 72 h exposure, CellTiter-Glo
Description: as §3, §4

HT-29 = experiment: In vitro cytotoxicity assay (CellTiter-Glo); assay type: cell-based; settings: for IC50: 72 h exposure, CellTiter-Glo
Description: as §3, §4

in vitro [5] = settings: human, Caco-2
Description: as §6

[6] = Bi-directional permeability in MDCK cells; settings: dog
Description: as §6

CAKI-1 = experiment: In vitro cytotoxicity assay (CellTiter-Glo); assay type: cell-based; settings: for IC50: 72 h exposure, CellTiter-Glo
in vitro [7] = settings: dog, MDCK
Description: as §6

COLO205 = experiment: Sulforhodamine B (SRB) growth inhibition assay; assay type: cell-based, Human; settings: COLO205; SRB assay, cells exposed for 24 h; read-out: GI50 values (μM) COLO205
Description: as §1, §2
as §2, with “The objective” for “The aim”, “the IC50” for “the GI50”, “for PEG-gemcitabine” for “for PEG-floxuridine”, “in dimethyl sulfoxide” for “in dimethylsulfoxide”, “10^−6, 10^−7” for “10^−6,”, “condition ([(Ti−Tz)/(C−Tz)]×100=50,” for “condition ([(Ti−Tz)/(C-Tz)]×100=50,”

HCT15 = experiment: Sulforhodamine B (SRB) growth inhibition assay; assay type: cell-based, Human; settings: SRB assay, cells exposed for 24 h, read-out: GI50 values (μM) HCT15
Description: as §1, §2
as §2, with “The objective” for “The aim”, “the IC50” for “the GI50”, “for PEG-gemcitabine” for “for PEG-floxuridine”, “in dimethyl sulfoxide” for “in dimethylsulfoxide”, “10^−6, 10^−7” for “10^−6,”, “condition ([(Ti−Tz)/(C−Tz)]×100=50,” for “condition ([(Ti−Tz)/(C-Tz)]×100=50,”

NCI/ADR-RES = experiment: Sulforhodamine B (SRB) growth inhibition assay; assay type: cell-based, Human; settings: cells exposed for 24 h, read-out: GI50 values (μM) NCI/ADR-RES
Description: as §1
(§5) The aim was to determine the GI50 values for PEG-floxuridine conjugates against a panel of cell lines, and based on previous data from Xenograft studies. The cells were exposed for 24 h, and cell viability assessed by using the Sulphorhodamine (SRB) assay. The test articles were solubilized in dimethylsulfoxide and were tested at four different molar (M) concentrations; 10^−4, 10^−5, 10^−6, M. GI50 (the concentration needed to reduce the growth of treated cells to half that of untreated control cells) was calculated for each condition ([(Ti−Tz)/(C-Tz)]×100=50, where Ti, Tz, and C refer to absorbance values obtained from each tested concentration, time zero, and control treatment, respectively).
as §5, with “The objective” for “The aim”, “the IC50” for “the GI50”, “for PEG-gemcitabine” for “for PEG-floxuridine”, “in dimethyl sulfoxide” for “in dimethylsulfoxide”, “10^−6, 10^−7” for “10^−6,”, “condition ([(Ti−Tz)/(C−Tz)]×100=50,” for “condition ([(Ti−Tz)/(C-Tz)]×100=50,”

Caco-2 cells [8] = experiment: Bi-directional permeability in Caco-2 cells
Description: as §6

MDCK cells [9] = experiment: Bi-directional permeability in MDCK cells
Description: as §6

[10] = cells exposed for 24 h, read-out: GI50 values (μM) MCF7

ratio vs flox (GI50) MCF7 (MCF7): 667 | GI50 (MCF7; [10]): > 100 µM | ratio vs flox (GI50) HT29 (HT29): 4 | GI50 (HT29; SRB assay): > 100 µM | ratio vs flox (GI50) A2780 (A2780): 1538 | GI50 (A2780): > 100 µM | ratio vs flox (GI50) DU145 (DU145): 4 | GI50 (DU145; SRB assay): > 100 µM
Structure (SMILES): COCCOCCOCCOP(=O)(OCCOCCOCCOC)OC[C@H]1O[C@@H](n2cc(F)c(=O)[nH]c2=O)C[C@@H]1O [Floxuridine Di (mPEG3), 5′-floxuridine di-methoxy tri(ethylene glycol) phosphate]
ratio vs flox (GI50) Hop62 (Hop62): 417 | GI50 (Hop62; SRB assay): > 100 µM

GI50 (MCF7; Homo sapiens, cells exposed for 24 h, read-out: GI50 values (μM) MCF7): 0.15 µM | GI50 (HT29; Homo sapiens, HT-29, SRB assay): 25 µM | GI50 (A2780; Homo sapiens): 0.065 µM | Significant efflux (MDCK cells [1]): No | permeability through MDCK monolayers (in words) (MDCK cells [1]): poor permeability | Peak Area of measured floxuridine ([2]; HPLC, supernatant of MCF-7 culture after 48 h with test article): 119819 | concentration of floxuridine estimated in culture medium ([2]; after cells were treated with test article): 24.44 | Calculated Concentration (μg/mL) of floxuridine ([2]; diluted sample (10 μL diluted to 200 μL), MCF-7 culture supernatant, 48 h): 1.211 µg/mL | Total Calculated Concentration in the sample using dilution factor ([2]; floxuridine in MCF-7 culture supernatant, 48 h, nominal 24.6 μg/mL): 24.22 | recovery ([3]; Caco-2, percent recovery A -> B): 75% | recovery ([3]; Caco-2, percent recovery B -> A): 91% | Significant efflux (Caco-2 cells [4]): No | permeability across Caco-2 monolayers (in words) (Caco-2 cells [4]): poor permeability | Papp A→B (in vitro [5]): 0.75 ×10⁻⁶ cm/s | Papp B→A (in vitro [5]): 1.47 ×10⁻⁶ cm/s | efflux ratio (in vitro [5]): 2 | GI50 (DU145; Homo sapiens, DU-145, SRB assay): 26 µM | recovery ([6]; percent recovery A -> B): 50% | recovery ([6]; percent recovery B -> A): 82% | Papp A→B (in vitro [7]): < 2.46 ×10⁻⁶ cm/s | Papp B→A (in vitro [7]): < 2.7 ×10⁻⁶ cm/s
Structure (SMILES): O=c1[nH]c(=O)n([C@H]2C[C@H](O)[C@@H](CO)O2)cc1F [Floxuridine, reference compound]
GI50 (Hop62; Homo sapiens, HOP-62, SRB assay): 0.24 µM | IC50 (MIA PaCa-2; Homo sapiens): 54 nM | IC50 (HCT-116; Homo sapiens): 32 nM | IC50 (HT-29; Homo sapiens): 90 nM | IC50 (CAKI-1; Homo sapiens): 110 nM

Structure (SMILES): COCCOCCOCCOCCOCCOCCOCCOP(=O)(O)OC[C@H]1O[C@@H](n2cc(F)c(=O)[nH]c2=O)C[C@@H]1O [Floxuridine Mono (mPEG7), 5′-floxuridine methoxy hepta(ethylene glycol) phosphate]
ratio vs flox (GI50) MCF7 (MCF7): 0.9 | GI50 (MCF7; 48 h drug exposure, read-out: GI50 in MCF7): 2.2 µM | GI50 (MCF7; [10]): 0.13 µM | ratio vs flox (GI50) HT29 (HT29): 4 | GI50 (HT29; SRB assay): > 100 µM | ratio vs flox (GI50) A2780 (A2780): 35 | GI50 (A2780): 2.3 µM | ratio vs flox (GI50) Hop62 (Hop62): 417 | GI50 (Hop62; SRB assay): > 100 µM | GI50 (COLO205): 1.9 µM | GI50 (HCT15): ~32 µM | GI50 (NCI/ADR-RES): < 0.1 µM | Papp A -> B (Caco-2 cells [8]): 0.14 10^−6 cm/s | Papp B -> A (Caco-2 cells [8]): 0.06 10^−6 cm/s | Papp B-A/Papp A-B (Caco-2 cells [8]): 0.4 | Significant efflux (Caco-2 cells [8]): No | percent recovery A -> B (Caco-2 cells [8]): 79% | percent recovery B -> A (Caco-2 cells [8]): 89% | Ratio vs floxuridine (IC50) MIA PaCa-2 (MIA PaCa-2): 2 | IC50 (MIA PaCa-2): 96 nM | Ratio vs floxuridine (IC50) HCT-116 (HCT-116): 2 | IC50 (HCT-116): 48 nM | Ratio vs floxuridine (IC50) HT-29 (HT-29): 1 | IC50 (HT-29): 76 nM | ratio vs flox (GI50) DU145 (DU145): 0.005 | GI50 (DU145; SRB assay): 0.13 µM | Papp A -> B (MDCK cells [9]): <0.06 10^−6 cm/s | Papp B -> A (MDCK cells [9]): <0.08 10^−6 cm/s | Significant efflux (MDCK cells [9]): No | percent recovery A -> B (MDCK cells [9]): 100% | percent recovery B -> A (MDCK cells [9]): 90% | Ratio vs floxuridine (IC50) CAKI-1 (CAKI-1): 1 | IC50 (CAKI-1): 157 nM
